BindingDB's records for patent US11708326 (Chemocentryx, 2023)

target: Programmed cell death 1 ligand 1 (Homo sapiens, UniProt Q9NZQ7); test: Enzyme-Linked Immunosorbent Assay ELISA
Method: 96 Well plates were coated with 1 μg/mL of human PD-L1 (obtained from R&D) in PBS overnight at 4° C. The wells were then blocked with 2% BSA in PBS (W/V) with 0.05% TWEEN-20 for 1 hour at 37° C. The plates were washed 3 times with PBS/0.05% TWEEN-20 and the compounds were serial diluted (1:5) in dilution medium and added to the ELISA plates. Human PD-1 and biotin 0.3 μg/mL (ACRO Biosystems) were added and incubated for 1 hour at 37° C. then washed 3 times with PBS/0.05% TWEEN-20. A second block was performed with 2% BSA in PBS (W/V)/0.05% TWEEN-20 for 10 min at 37° C. and was washed 3 times with PBS/0.05% TWEEN-20. Streptavidin-HRP was added for 1 hour at 37° C. then washed 3 times with PBS/0.05% TWEEN-20. TMB substrate was added and reacted for 20 min at 37° C. A stop solution (2 N aqueous H2SO4) was added. The absorbance was read at 450 nm using a micro-plate spectrophotometer.

Programmed cell death 1 ligand 1, sequence (Q9NZQ7 whole entry): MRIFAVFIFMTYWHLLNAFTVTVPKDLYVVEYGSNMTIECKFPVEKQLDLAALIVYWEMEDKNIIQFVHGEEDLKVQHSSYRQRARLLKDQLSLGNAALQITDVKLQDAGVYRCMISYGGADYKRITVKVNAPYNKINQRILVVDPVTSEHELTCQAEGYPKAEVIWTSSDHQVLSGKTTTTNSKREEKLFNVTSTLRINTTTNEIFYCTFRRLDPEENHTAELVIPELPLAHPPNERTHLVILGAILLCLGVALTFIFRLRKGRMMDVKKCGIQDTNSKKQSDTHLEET

| SMILES | IC50 |
| --- | --- |
| Cc1c(OCCCN2CCC(F)(F)CC2)cccc1-c1cccc2c1CC[C@@H]2Oc1cc(OCc2cncc(C#N)c2)c(CN[C@H](C(=O)O)[C@@H](C)O)cc1Cl [US11708326, Compound TABLE 1.18] | in the range around 252 nM |
| Cc1c(OCCCN2CC[C@@H](O)[C@H](F)C2)cccc1-c1cccc2c1CC[C@@H]2Oc1cc(OCc2cncc(C#N)c2)c(CN[C@H](C(=O)O)[C@@H](C)O)cc1Cl [US11708326, Compound TABLE 1.31] | in the range around 252 nM |
| Cc1c(OCCCN2CC[C@H](O)[C@H](F)C2)cccc1-c1cccc2c1CC[C@@H]2Oc1cc(OCc2cncc(C#N)c2)c(CN[C@H](C(=O)O)[C@@H](C)O)cc1Cl [US11708326, Compound TABLE 1.34] | < 5 nM |
| N#Cc1cncc(COc2cc(O[C@H]3CCc4c(-c5cccc(OCCCN6CC(F)C6)c5Cl)cccc43)c(Cl)cc2CN[C@@H]2CCCC[C@@H]2O)c1 [US11708326, Compound TABLE 1.92] | < 5 nM |
| CCOc1cc(NC2CCc3c(-c4cccc(OCCCN5CCC(F)CC5)c4C)cccc32)c(Cl)cc1CN[C@@H](CO)C(=O)O (stereo not given in full) [US11708326, Compound TABLE 1.117] | in the range around 252 nM |
| CC(CO)(NCc1cc(Cl)c(O[C@H]2CCc3c(-c4cccc(OCCCN5CCCCC5)c4Cl)cccc32)cc1OCc1cncc(C#N)c1)C(=O)O (stereo not given in full) [US11708326, Compound TABLE 1.130] | < 5 nM |
| N#Cc1cncc(COc2cc(O[C@H]3CCc4c(-c5cccc(OCCCN6CC(O)C6)c5Cl)cccc43)c(Cl)cc2CN2CCCC3(C2)NC(=O)NC3=O)c1 (stereo not given in full) [US11708326, Compound TABLE 1.137] | < 5 nM |
| N#Cc1cncc(COc2cc(O[C@H]3CCc4c(-c5cccc(OCCCN6CC7(CC(O)C7)C6)c5Cl)cccc43)c(Cl)cc2CNC[C@@H]2CCC(=O)N2)c1 [US11708326, Compound TABLE 1.164] | < 5 nM |
| N#Cc1cncc(COc2cc(O[C@H]3CCc4c(-c5cccc(OCCCN6CC7(CC(O)C7)C6)c5Cl)cccc43)c(Cl)cc2CNC[C@H]2CCC(=O)N2)c1 [US11708326, Compound TABLE 1.165] | < 5 nM |
| Cc1c(OCCCN2CCC(C)CC2)cccc1-c1cccc2c1CC[C@@H]2Oc1cc(OCc2cc(C#N)cc(C#N)c2)c(CN[C@H]2CCC(=O)NC2)cc1Cl [US11708326, Compound TABLE 1.296] | in the range around 252 nM |
| Cc1c(OCCCN2[C@H](C)CCC[C@@H]2C)cccc1-c1cccc2c1CC[C@@H]2Oc1cc(OCc2cc(C#N)cc(C#N)c2)c(CN[C@H]2CCC(=O)NC2)cc1Cl [US11708326, Compound TABLE 1.298] | in the range around 252 nM |
| Cc1c(OCCCN2C(C)CCC2C)cccc1-c1cccc2c1CC[C@@H]2Oc1cc(OCc2cc(C#N)cc(C#N)c2)c(CN[C@H]2CCC(=O)NC2)cc1Cl (stereo not given in full) [US11708326, Compound TABLE 1.304] | < 5 nM |
| Cc1c(OCCCN2CCCC2C(C)C)cccc1-c1cccc2c1CC[C@@H]2Oc1cc(OCc2cc(C#N)cc(C#N)c2)c(CN[C@H]2CCC(=O)NC2)cc1Cl (stereo not given in full) [US11708326, Compound TABLE 1.305] | in the range around 252 nM |
| Cc1c(OCCCN2CCCC[C@@H]2C)cccc1-c1cccc2c1CC[C@@H]2Oc1cc(OCc2cc(C#N)cc(C#N)c2)c(CN[C@H]2CCC(=O)NC2)cc1Cl [US11708326, Compound TABLE 1.315] | < 5 nM |
| Cc1c(OCCCN2CCC2(C)C)cccc1-c1cccc2c1CC[C@@H]2Oc1cc(OCc2cc(C#N)cc(C#N)c2)c(CN[C@H]2CCC(=O)NC2)cc1Cl [US11708326, Compound TABLE 1.323] | < 5 nM |
| Cc1c(OCCCN2[C@H](C)CC[C@@H]2C)cccc1-c1cccc2c1CC[C@@H]2Oc1cc(OCc2cc(C#N)cc(C#N)c2)c(CN[C@H]2CCC(=O)NC2)cc1Cl [US11708326, Compound TABLE 1.333] | < 5 nM |
| Cc1c(OCCCN2[C@H](C)CC[C@H]2C)cccc1-c1cccc2c1CC[C@@H]2Oc1cc(OCc2cc(C#N)cc(C#N)c2)c(CN[C@H]2CCC(=O)NC2)cc1Cl [US11708326, Compound TABLE 1.334] | < 5 nM |
| Cc1c(OCCCN2[C@@H](C)CC[C@@H]2C)cccc1-c1cccc2c1CC[C@@H]2Oc1cc(OCc2cc(C#N)cc(C#N)c2)c(CN[C@H]2CCC(=O)NC2)cc1Cl [US11708326, Compound TABLE 1.335] | < 5 nM |
| CCOc1cc(O[C@H]2CCc3c(-c4cccc(OCCCN5CCC5(C)C)c4C)cccc32)c(Cl)cc1CN(C)CC(=O)O [US11708326, Compound TABLE 1.378] | in the range around 252 nM |
| CCOc1cc(O[C@H]2CCc3c(-c4cccc(OCCCN5CCC5(C)C)c4C)cccc32)c(Cl)cc1CNCCC(=O)OC(C)C [US11708326, Compound TABLE 1.393] | in the range around 252 nM |
